According to US11160784B1, “Treatment of brain metastases using organonitro compound combination therapy” (EpicentRx, Inc., priority 2015, dated 2021):

Legend:
brain metastases [1] = assay: Treatment of thirteen additional human patients suffering from brain metastases with ABDNAZ in combination with whole brain radiation therapy; assay type: in vivo; conditions: ABDNAZ 1.25 to 8.4 mg/m^2 IV + WBRT 30 Gy
Method: Thirteen human patients suffering from brain metastases were treated according to the protocol described in Part I below using ABDNAZ in combination with whole brain radiation therapy.
ABDNAZ was administered intravenously at a dosage in the range of 1.25 mg/m^2 to 8.4 mg/m^2. During radiation therapy, (i) subjects were treated in the supine position, (ii) adequate immobilization and reproducibility of position was ensured using thermoplastic mask, (iii) the target volume included the whole brain, per the treating radiation oncologist, (iv) the lens of the eye was excluded from the beam using shielding or by beam collimation, (v) the dose of radiation is specified at central axis at mid-plane, (vi) whole brain radiotherapy was delivered with a daily fraction size of 3.0 Gy per fraction given 5 days a week for a total dose of 30 Gy, and (vii) radiation therapy was delivered using photon beam energies of 6 MV and an opposed lateral technique, where all fields are treated during each treatment session.

SCCVII tumor = assay: Impact of time between administration of ABDNAZ and radiation therapy on tumor growth delay; assay type: in vivo, mice; conditions: ABDNAZ 15 mg/kg IP single dose at -24 h, -2 h, concurrent, +2 h or +24 h; single local 7 Gy; FIG. 1
Method: The impact of the time interval between administration of ABDNAZ and radiation therapy on tumor growth delay was evaluated in mice having a SCCVII tumor. Experimental procedures and results are described below.
Mice having a SCCVII tumor were treated with radiation therapy and ABDNAZ, where the length of time between administration of radiation therapy and ABDNAZ was varied. Radiation therapy was administered as a single local dose of 7 Gy of radiation. ABDNAZ was dosed in 5 groups of mice at 15 mg/kg IP as a single dose at one of the following time points: 24 hours prior to radiation therapy, 2 hours prior to radiation therapy, concurrent with radiation therapy, 2 hours after radiation therapy, or 24 hours after radiation therapy.

brain metastases [2] = assay: Treatment of two human patients suffering from brain metastases with ABDNAZ in combination with whole brain radiation therapy; assay type: in vivo
Method: Two human patients suffering from brain metastases were treated according to the protocol described in Part I below using ABDNAZ in combination with whole brain radiation therapy.
ABDNAZ was administered intravenously in a formulation containing ABDNAZ, polyethylene glycol having a number-average molecular weight of 400 g/mol (PEG-400), water for injection, and NN-dimethylacetamide. A single dosage of ABDNAZ was 5 mg/m^2. During radiation therapy, (i) subjects were treated in the supine position, (ii) adequate immobilization and reproducibility of position was ensured using thermoplastic mask, (iii) the target volume included the whole brain, per the treating radiation oncologist, (iv) the lens of the eye was excluded from the beam using shielding or by beam collimation, (v) the dose of radiation is specified at central axis at mid-plane, (vi) whole brain radiotherapy was delivered with a daily fraction size of 3.0 Gy per fraction given 5 days a week for a total dose of 30 Gy, and (vii) radiation therapy was delivered using photon beam energies of 6 MV and an opposed lateral technique, where all fields are treated during each treatment session.

[3] = first patient, four weeks after completion of ABDNAZ + WBRT

Compound: O=C(CBr)N1CC([N+](=O)[O-])([N+](=O)[O-])C1 [ABDNAZ]
- adverse events (brain metastases [1]): No adverse events were observed
- patients with decrease of at least 30% in sum of longest diameters of target lesions and absolute decrease of at least 5 mm in at least one target lesion (brain metastases [1]): Approximately 50%
- tumor growth delay versus time interval between ABDNAZ and radiation therapy (SCCVII tumor): Maximum tumor growth delay occurred when ABDNAZ was administered minutes before or concomitant with radiation therapy
- k^trans by dynamic contrast-enhanced brain MRI (brain metastases [2]; first patient (melanoma brain metastases), 24 hours after first dose of ABDNAZ 5 mg/m^2 IV): decrease in k^trans in 4 of 5 lesions
- size of new lesion discovered (brain metastases [2]; first patient, 4 months after completion of ABDNAZ + WBRT, possibly seeding from systemic disease): 5 mm
- tolerability (brain metastases [2]; first patient, ABDNAZ 5 mg/m^2 IV + WBRT 30 Gy): well-tolerated with mild, transient infusion site pain, and without any signs of systemic or neurologic toxicity
- visual symptoms (brain metastases [2]; first patient, by the end of treatment with ABDNAZ + WBRT): improved visual symptoms with near resolution of visual field-deficit
- edema associated with lesions (brain metastases [2]; first patient, four months after completion of ABDNAZ + WBRT): decrease in associated edema of all lesions
- physical function, Barthel ADL index (brain metastases [2]; [3]): unchanged from baseline
- size of brain lesions by contrasted brain MRI (brain metastases [2]; [3]): decrease in the size of the largest right and left occipital masses
- visual symptoms (brain metastases [2]; first patient, within 48 hours of receiving the first dose of radiation therapy, ABDNAZ 5 mg/m^2 IV + WBRT): began to improve
- number of sub-centimeter metastases with complete disappearance (brain metastases [2]; second patient, 3 months after end of ABDNAZ + WBRT): 3
- lesion response on serial re-imaging (brain metastases [2]; second patient, at least 18 brain metastases at baseline, ABDNAZ + WBRT): response in all 18 visualized lesions
- infusion site pain (brain metastases [2]; second patient, during treatment): no significant infusion site pain
- k^trans by DCE-MRI (brain metastases [2]; second patient, largest evaluable lesion, 24 hours after first administration of ABDNAZ): slight reduction in k^trans
- physical function, Barthel ADL index (brain metastases [2]; second patient, one month after end of ABDNAZ + WBRT): unchanged from baseline
